Laboratory results: patent US20060205743A1, “Protein kinase inhibitors” (priority 2003, published 2006)

Target: MAPKAP-K2 (Homo sapiens, UniProt P49137)
Experiment: MAPKAP-Kinase 2 Assay (33P-ATP peptide phosphorylation, filter plate)
Type: biochemical
Set-up: key: +: active; ++: more active; +++: very active
Settings: assays conducted at typically 1-100 μM
Protocol: MAPKAP-Kinase 2 Assay [Compound Preparation]
Compounds are dissolved in DMSO at a concentration of 3 mM and stored in aliquots at −20° C. Compounds in DMSO from these stock aliquots are diluted in 30% DMSO to produce initial working stock solutions of 1 mM and 3 mM. Both of these stock solutions are then subjected to 1:10 serial dilutions in 30% DMSO in order to prepare 3000, 1000, 300, 100, 30, 10, 3, 1, 0.1, 0.01 μM stock solutions. 5 μl of each stock solution is used per 50 μl reaction to give final assay concentrations of 300, 100, 30, 10, 3, 1, 0.3, 0.1, 0.01, 0.001 μM.
The kinase reaction is conducted in a round-bottomed polypropylene 96-well plate. MAPKAP-K2 is diluted to 25 mU/μl in diluent buffer (50 mM Tris/HCl. pH7.5, 0.1 mM EGTA, 0.1% (v/v) β-mercaptoethanol, 1 mg/ml BSA). 5 μl compound or 30% DMSO is added to each well followed by 25 μl substrate cocktail (10 μM ATP, 30 μM peptide (KKLNRTLSVA), 0.5 μCi ^33P-γ-ATP in 50 mM Tris pH7.5, 0.1 mM EGTA, 10 mM Mg-acetate, 0.1% BME). The reaction is initiated with the addition of 20 μl enzyme solution per well or 20 μl diluent buffer without enzyme. The plate is shaken for 10 sec and then left at room temperature for 30 min. The reaction is terminated with 50 μl 150 mM phosphoric acid. 90 μl of the reaction mixture is then transferred into a 96-well P81 filter plate (Millipore) and incubated at room temperature for 5 min. The filter plate is then washed 4 times with 200 μl 75 mM phosphoric acid per well on a plate vacuum manifold (Millipore) and dried in an oven for 2-3 h. Packard MicroScint ‘0’ (30 μl) is then added to each well, the plate is mixed for 30 min and subjected to liquid scintillation counting on a Packard TopCount.
[Interpretation] %Control=(X−B)/(Tot−B)×100 %Inhibition=100−% Control X=cpm of the test compound wells B=cpm of wells without enzyme Tot=cpm of wells with DMSO vehicle only

Sequence of MAPKAP-K2 (P49137 whole entry): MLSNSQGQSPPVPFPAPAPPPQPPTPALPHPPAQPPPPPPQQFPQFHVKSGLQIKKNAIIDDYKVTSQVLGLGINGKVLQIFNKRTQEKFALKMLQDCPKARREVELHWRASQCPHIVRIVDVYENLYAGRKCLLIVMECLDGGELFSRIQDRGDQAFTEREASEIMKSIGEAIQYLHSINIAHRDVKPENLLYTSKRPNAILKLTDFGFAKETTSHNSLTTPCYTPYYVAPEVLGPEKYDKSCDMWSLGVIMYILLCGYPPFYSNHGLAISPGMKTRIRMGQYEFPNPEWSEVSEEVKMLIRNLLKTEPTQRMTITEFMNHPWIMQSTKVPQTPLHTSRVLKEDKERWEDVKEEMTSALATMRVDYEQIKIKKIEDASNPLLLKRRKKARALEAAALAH

MAPKAP-K2 activity | SMILES
+ | CC(=O)NC1CCC(Nc2cc(Nc3ccc(F)c(Cl)c3)n3nccc3n2)CC1 (centres unmarked) [Compound 25]
+++ | NC1CCC(Nc2cc(Nc3c(F)cccc3F)n3nccc3n2)CC1 (centres unmarked) [Compound 109]
++ | COc1ccc(Nc2cc(NC3CCC(N)CC3)nc3ccnn23)c(OC)c1OC (centres unmarked) [Compound 103]
++ | NC1CCC(Nc2cc(NCCc3ccccc3)n3nccc3n2)CC1 (centres unmarked) [Compound 29]
++ | C=CCNc1cc(NC2CCC(N)CC2)nc2ccnn12 (centres unmarked) [Compound 48]
+++ | N[C@H]1CC[C@H](Nc2cc(Nc3ccc(O)cc3)n3nccc3n2)CC1 [Compound 70]
+ | Fc1ccc(Nc2cc(NC3CCC(NCc4ccccc4)CC3)nc3ccnn23)cc1Cl (centres unmarked) [Compound 120]
+++ | c1ccc(COc2cccc(Nc3cc(NC4CCCNC4)nc4ccnn34)c2)cc1 (centres unmarked) [Compound 98]
+++ | COc1ccc(Nc2cc(N[C@H]3CC[C@H](N)CC3)nc3ccnn23)cc1 [Compound 17]
+++ | NC1CCC(Nc2cc(Nc3ccc(Oc4ccc(Cl)cc4)cc3)n3nccc3n2)CC1 (centres unmarked) [Compound 41]
+++ | Cc1cccc(Nc2cc(NC3CCC(N)CC3)nc3ccnn23)c1 (centres unmarked) [Compound 44]
+++ | CCOc1ccc(Nc2cc(NC3CCCNC3)nc3ccnn23)cc1 (centres unmarked) [Compound 139]
+++ | Cc1ccc(C)c(Nc2cc(N[C@H]3CC[C@H](N)CC3)nc3ccnn23)c1 [Compound 75]
+++ | NC1CCC(Nc2cc(Nc3ccc(F)cc3Cl)n3nccc3n2)CC1 (centres unmarked) [Compound 108]
+++ | N[C@H]1CC[C@H](Nc2cc(Nc3cccc(Cl)c3Cl)n3nccc3n2)CC1 [Compound 67]
++ | COc1ccccc1Nc1cc(NC2CCC(N)CC2)nc2ccnn12 (centres unmarked) [Compound 47]
+++ | N[C@H]1CC[C@H](Nc2cc(Nc3ccc(Cl)cc3)n3nccc3n2)CC1 [Compound 12]
++ | Fc1ccc(Nc2cc(NC3CCNCC3)nc3ccnn23)cc1Cl [Compound 88]
+++ | C=C(C)CNc1cc(NC2CCC(N)CC2)nc2ccnn12 (centres unmarked) [Compound 58]
+++ | CCN[C@H]1CC[C@H](Nc2cc(Nc3ccc(F)c(Cl)c3)n3nccc3n2)CC1 [Compound 89]
+ | CC(Nc1cc(N[C@H]2CC[C@H](N)CC2)nc2ccnn12)c1ccccc1 (some centres unmarked) [Compound 23]
++ | CC(C)(C)c1ccc(Nc2cc(NC3CCC(N)CC3)nc3ccnn23)cc1 (centres unmarked) [Compound 34]
+++ | N[C@H]1CC[C@H](Nc2cc(Nc3c(Cl)cccc3Cl)n3nccc3n2)CC1 [Compound 69]
++ | Fc1ccc(Nc2cc(NC3CCC(NCCc4ccccc4)CC3)nc3ccnn23)cc1Cl (centres unmarked) [Compound 121]

MAPKAP-K2 activity | SMILES
++ | Fc1ccc(Nc2cc(NC3CCC(NCC4CCOC4)CC3)nc3ccnn23)cc1Cl (centres unmarked) [Compound 127]
+++ | N[C@H]1CC[C@H](Nc2cc(Nc3cccc(OC(F)(F)F)c3)n3nccc3n2)CC1 [Compound 63]
+ | NC1CCCC(Nc2cc(Nc3ccc(F)c(Cl)c3)n3nccc3n2)C1 (centres unmarked) [Compound 61]
++ | N[C@H]1CC[C@H](Nc2cc(NCc3ccc(Cl)cc3)n3nccc3n2)CC1 [Compound 14]
++ | Fc1ccc(Nc2cc(NC3CCC(NCc4ccoc4)CC3)nc3ccnn23)cc1Cl (centres unmarked) [Compound 128]
+++ | N#Cc1cccc(Nc2cc(NC3CCC(N)CC3)nc3ccnn23)c1 (centres unmarked) [Compound 32]
+ | NC1CCC(Nc2cc(NCCOc3ccccc3)n3nccc3n2)CC1 (centres unmarked) [Compound 31]
+++ | CCCc1ccc(Nc2cc(NC3CCC(N)CC3)nc3ccnn23)cc1 (centres unmarked) [Compound 36]
+++ | NC1CCC(Nc2cc(Nc3ccc(Oc4cccc(C(F)(F)F)c4)cc3)n3nccc3n2)CC1 (centres unmarked) [Compound 42]
+ | CS(=O)(=O)NC1CCC(Nc2cc(Nc3ccc(F)c(Cl)c3)n3nccc3n2)CC1 (centres unmarked) [Compound 27]
++ | CNCCNc1cc(Nc2ccc(F)c(Cl)c2)n2nccc2n1 [Compound 86]
+ | NCCCCNc1cc(Nc2ccc(F)c(Cl)c2)n2nccc2n1 [Compound 78]
+++ | CCOc1cccc(Nc2cc(N[C@H]3CC[C@H](N)CC3)nc3ccnn23)c1 [Compound 65]
+++ | COc1ccc(Cl)c(Nc2cc(NC3CCC(N)CC3)nc3ccnn23)c1 (centres unmarked) [Compound 99]
+++ | CN(C)c1ccc(Nc2cc(N[C@H]3CC[C@H](N)CC3)nc3ccnn23)cc1 [Compound 15]
+++ | NC1CCC(Nc2cc(Nc3ccc(C(F)(F)F)cc3Cl)n3nccc3n2)CC1 (centres unmarked) [Compound 91]
++ | COc1ccc(Nc2cc(NC3CCC(N)CC3)nc3ccnn23)c(C)c1 (centres unmarked) [Compound 114]
+++ | NC1CCC(Nc2cc(Nc3ccc4c(c3)OCO4)n3nccc3n2)CC1 (centres unmarked) [Compound 51]
+++ | N[C@H]1CC[C@H](Nc2cc(Nc3cccc(OCc4ccccc4)c3)n3nccc3n2)CC1 [Compound 64]
+++ | NC1CCC(Nc2cc(Nc3ccccc3I)n3nccc3n2)CC1 (centres unmarked) [Compound 101]
+++ | NC1CCC(Nc2cc(Nc3cccc(Oc4ccccc4)c3)n3nccc3n2)CC1 (centres unmarked) [Compound 46]
+++ | CC(C)c1ccc(Nc2cc(NC3CCC(N)CC3)nc3ccnn23)cc1 (centres unmarked) [Compound 37]
+++ | C#CCNc1cc(NC2CCC(N)CC2)nc2ccnn12 (centres unmarked) [Compound 59]
++ | NC1CCCN(c2cc(Nc3ccc(F)c(Cl)c3)n3nccc3n2)C1 (centres unmarked) [Compound 72]

MAPKAP-K2 activity | SMILES
+++ | N[C@H]1CC[C@H](Nc2cc(Nc3cc(Cl)ccc3Cl)n3nccc3n2)CC1 [Compound 68]
++ | Fc1ccc(Nc2cc(NC3CCNC3)nc3ccnn23)cc1Cl (centres unmarked) [Compound 73]
++ | N[C@H]1CC[C@H](Nc2cc(NCc3ccc(F)c(Cl)c3)n3nccc3n2)CC1 [Compound 1]
++ | Fc1ccc(Nc2cc(NC3CCC(NCCCCCc4ccccc4)CC3)nc3ccnn23)cc1Cl (centres unmarked) [Compound 132]
+ | NC1CCN(c2cc(Nc3ccc(F)c(Cl)c3)n3nccc3n2)C1 (centres unmarked) [Compound 82]
+++ | CN[C@H]1CC[C@H](Nc2cc(Nc3ccc(F)c(Cl)c3)n3nccc3n2)CC1 [Compound 87]
+++ | N[C@H]1CC[C@H](Nc2cc(Nc3ccc(F)cc3F)n3nccc3n2)CC1 [Compound 22]
+ | O=C(NC1CCC(Nc2cc(Nc3ccc(F)c(Cl)c3)n3nccc3n2)CC1)c1ccccc1 (centres unmarked) [Compound 28]
+ | CC(CN(C)C)N[C@H]1CC[C@H](Nc2cc(Nc3ccc(F)c(Cl)c3)n3nccc3n2)CC1 (some centres unmarked) [Compound 137]
+ | NCCNc1cc(Nc2ccc(F)c(Cl)c2)n2nccc2n1 [Compound 116]
+++ | N[C@H]1CC[C@H](Nc2cc(Nc3ccccc3)n3nccc3n2)CC1 [Compound 10]
+++ | NC1CCC(Nc2cc(Nc3ccc(OC(F)(F)F)cc3Cl)n3nccc3n2)CC1 (centres unmarked) [Compound 107]
+++ | COc1cccc(Nc2cc(NC3CCCNC3)nc3ccnn23)c1 (centres unmarked) [Compound 97]
+++ | Cc1ccc(Nc2cc(NC3CCC(N)CC3)nc3ccnn23)cc1C (centres unmarked) [Compound 43]
+++ | CC(C)Oc1ccc(Nc2cc(NC3CCC(N)CC3)nc3ccnn23)c(F)c1 (centres unmarked) [Compound 113]
+++ | CC(C)=CCCC(C)=CCNc1cc(NC2CCC(N)CC2)nc2ccnn12 (centres unmarked) [Compound 115]
+ | CNC(=S)N[C@H]1CC[C@H](Nc2cc(Nc3ccc(F)c(Cl)c3)n3nccc3n2)CC1 [Compound 57]
+++ | N[C@H]1CC[C@H](Nc2cc(Nc3ccccc3F)n3nccc3n2)CC1 [Compound 66]
+ | O=C(Nc1ccccc1)NC1CCC(Nc2cc(Nc3ccc(F)c(Cl)c3)n3nccc3n2)CC1 (centres unmarked) [Compound 49]
++ | N[C@H]1CC[C@H](Nc2cc(NCc3cccc(Cl)c3)n3nccc3n2)CC1 [Compound 8]
+++ | Fc1ccccc1Nc1cc(NC2CCCNC2)nc2ccnn12 (centres unmarked) [Compound 141]
++ | Cc1ccsc1CNc1cc(N[C@H]2CC[C@H](N)CC2)nc2ccnn12 [Compound 7]
+ | CN(CCN)c1cc(Nc2ccc(F)c(Cl)c2)n2nccc2n1 [Compound 80]
